Earlier results, collected in publication PMC6882435, “Preparation and study of two kinds of ophthalmic nano-preparations of everolimus” (Drug Delivery, 2019).

Tests used:
[1] = set-up: method as in Baspinar et al., 2008; Tedesco-Silva et al., 2019; details: patients that take the drug (systemic, oral); ref Baspinar et al., 2008; Tedesco-Silva et al., 2019
[2] = set-up: method as in Iwase & Maitani, 2012; details: raw material at room temperature; ref Iwase & Maitani, 2012

solubility [2]: about 9.6 μg·mL^−1
SMILES: CO[C@H]1C[C@@H]2CC[C@@H](C)[C@@](O)(O2)C(=O)C(=O)N2CCCC[C@H]2C(=O)O[C@H]([C@H](C)C[C@@H]2CC[C@@H](OCCO)[C@H](OC)C2)CC(=O)[C@H](C)/C=C(\C)[C@@H](O)[C@@H](OC)C(=O)[C@H](C)C[C@H](C)/C=C/C=C/C=C/1C [Everolimus, 4 O-O-(2-hydroxyethyl)-rapamycin]
patients with side effects such as thrombocytopenia and dyslipidemia [1]: about 30%
